# Source: article PMC8881512 (Nature Communications, 2022)
# pIC50: −log10 of the molar value.
# Legend:
# [1] = molecular target: T1, MUSK (Homo sapiens, UniProt O15146); test: Kinome profiling; type: biochemical; settings: VT02956 (5 nM), read-out: % enzymatic activity relative to DMSO controls
# T1 construct: LATS1/LATS2 enzymes from Signalchem
# [2] = molecular target: T2, RSK1 (Homo sapiens, UniProt Q15418); test: Kinome profiling; type: biochemical; settings: VT02956 (5 nM), read-out: % enzymatic activity relative to DMSO controls
# T2 construct: LATS1/LATS2 enzymes from Signalchem
# [3] = molecular target: T3, BTK (Homo sapiens, UniProt Q06187); test: Kinome profiling; type: biochemical; settings: VT02956 (5 nM)
# T3 construct: LATS1/LATS2 enzymes from Signalchem
# [4] = molecular target: T4, RIPK2 (Homo sapiens, UniProt O43353); test: Kinome profiling; type: biochemical; settings: VT02956 (5 nM), read-out: % enzymatic activity relative to DMSO controls
# T4 construct: LATS1/LATS2 enzymes from Signalchem
# [5] = molecular target: T5, PKN3/PRK3 (Homo sapiens, UniProt Q6P5Z2); test: Kinome profiling; type: biochemical; settings: VT02956 (5 nM)
# T5 construct: LATS1/LATS2 enzymes from Signalchem
# [6] = molecular target: T6, CDK9/cyclin T1 (Homo sapiens, UniProt P50750); test: Kinome profiling; type: biochemical; settings: VT02956 (5 nM), read-out: % enzymatic activity relative to DMSO controls
# T6 construct: LATS1/LATS2 enzymes from Signalchem
# [7] = test system: MDA-MB-231 cells; test: Cell proliferation, MDA-MB-231; type: cell-based; settings: 0.5 µM or 2 µM VT02956 for 4 days; Supplementary Fig. 8e
# Procedure: (§1) Cell proliferation rates were determined by automated cell counter. In brief, cells were plated at density of 0.1 million cells per well in six-well plate. Cell numbers were counted by the indicated time point as stated in the figure legends.
# [8] = molecular target: T7, PHKg2 (Homo sapiens, UniProt P15735); test: Kinome profiling; type: biochemical; settings: VT02956 (5 nM), read-out: % enzymatic activity relative to DMSO controls
# T7 construct: LATS1/LATS2 enzymes from Signalchem
# [9] = molecular target: T8, MSK1/RPS6KA5 (Homo sapiens, UniProt O75582); test: Kinome profiling; type: biochemical; settings: VT02956 (5 nM), read-out: % enzymatic activity relative to DMSO controls
# T8 construct: LATS1/LATS2 enzymes from Signalchem
# [10] = molecular target: T9, CK2a (Homo sapiens, UniProt P68400); test: Kinome profiling; type: biochemical; settings: VT02956 (5 nM), read-out: % enzymatic activity relative to DMSO controls
# T9 construct: LATS1/LATS2 enzymes from Signalchem
# [11] = molecular target: T10, WNK3 (Homo sapiens, UniProt Q9BYP7); test: Kinome profiling; type: biochemical; settings: VT02956 (5 nM), read-out: % enzymatic activity relative to DMSO controls
# T10 construct: LATS1/LATS2 enzymes from Signalchem
# [12] = molecular target: T11, STK38/NDR1 (Homo sapiens, UniProt Q15208); test: Kinome profiling; type: biochemical; settings: VT02956 (5 nM), read-out: % enzymatic activity relative to DMSO controls
# T11 construct: LATS1/LATS2 enzymes from Signalchem
# [13] = molecular target: T12, SNRK (Homo sapiens, UniProt Q9NRH2); test: Kinome profiling; type: biochemical; settings: VT02956 (5 nM), read-out: % enzymatic activity relative to DMSO controls
# T12 construct: LATS1/LATS2 enzymes from Signalchem
# [14] = molecular target: T13, PKAcg (Homo sapiens, UniProt P22612); test: Kinome profiling; type: biochemical; settings: VT02956 (5 nM), read-out: % enzymatic activity relative to DMSO controls
# T13 construct: LATS1/LATS2 enzymes from Signalchem
# [15] = molecular target: T14, CAMKK1 (Homo sapiens, UniProt Q8N5S9); test: Kinome profiling; type: biochemical; settings: VT02956 (5 nM), read-out: % enzymatic activity relative to DMSO controls
# T14 construct: LATS1/LATS2 enzymes from Signalchem
# [16] = molecular target: T15, AKT1 (Homo sapiens, UniProt P31749); test: Kinome profiling; type: biochemical; settings: VT02956 (5 nM)
# T15 construct: LATS1/LATS2 enzymes from Signalchem
# [17] = test system: ERα, YAP/TAZ phosphorylation in MCF-7 cells; test: Immunoblot analysis, MCF-7 cells; type: cell-based, human; settings: MCF-7; 0.1, 0.5 and 2 μM for 2 days; Fig. 5f
# [18] = molecular target: T16, PRKX (Homo sapiens, UniProt P51817); test: Kinome profiling; type: biochemical; settings: VT02956 (5 nM), read-out: % enzymatic activity relative to DMSO controls
# T16 construct: LATS1/LATS2 enzymes from Signalchem
# [19] = test system: 4T1 cells; test: Cell viability, 4T1; type: cell-based
# [20] = test system: melanoma B16 cells; test: Cell proliferation, B16; type: cell-based; settings: 0.5 µM or 2 µM VT02956 for 4 days; Supplementary Fig. 8f
# Procedure: as §1
# [21] = test system: ER+ breast tumour organoids (BTO-02); test: 3D organoids drug response assay (CellTiter-Glo 3D); type: cell-based, human; settings: 3D drug killing assay; 12 days after compound treatment; Fig. 6b
# Procedure: Breast tumour organoids were dissociated into single cells using TrypLE Express and counted with automated cell counter. Subsequently, 1000 cells were mixed in 10 μl BME type 2, seeded onto 96-well plate in triplicate and overlaid with 100 μl BC organoid medium (BOM) after BME gelation. Three days after organoids sphere formation, medium was removed and replaced by 100 μl of complete medium containing VT02956 (0, 0.04, 0.2, 1, 5 μM) or vehicle (DMSO). The drug-containing medium was refreshed every 3 days for additional 3–4 times. At the end of the treatment, the effect of the drugs on the tumour organoids, in terms of the organoids cell growth, was assayed with CellTiter-Glo 3D (Promega) according to the manufacturer’s instructions and were normalised to vehicle controls (0.5% DMSO content). The IC50 values was calculated in GraphPad Prism 8.
# [22] = molecular target: T17, FER (Homo sapiens, UniProt P16591); test: Kinome profiling; type: biochemical; settings: VT02956 (5 nM), read-out: % enzymatic activity relative to DMSO controls
# T17 construct: LATS1/LATS2 enzymes from Signalchem
# T11 sequence (Q15208 whole entry): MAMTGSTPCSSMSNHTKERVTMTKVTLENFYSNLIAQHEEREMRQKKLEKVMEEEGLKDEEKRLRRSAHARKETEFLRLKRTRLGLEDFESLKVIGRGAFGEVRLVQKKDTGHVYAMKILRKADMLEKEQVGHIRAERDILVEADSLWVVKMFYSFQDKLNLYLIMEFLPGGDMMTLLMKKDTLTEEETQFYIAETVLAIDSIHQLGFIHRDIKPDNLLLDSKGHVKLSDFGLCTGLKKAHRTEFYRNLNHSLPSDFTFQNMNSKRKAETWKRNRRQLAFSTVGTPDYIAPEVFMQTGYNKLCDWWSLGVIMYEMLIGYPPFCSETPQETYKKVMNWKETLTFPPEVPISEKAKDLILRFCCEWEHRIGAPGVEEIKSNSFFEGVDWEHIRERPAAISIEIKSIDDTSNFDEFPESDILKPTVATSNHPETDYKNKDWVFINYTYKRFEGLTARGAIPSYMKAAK
# T7 sequence (P15735 whole entry): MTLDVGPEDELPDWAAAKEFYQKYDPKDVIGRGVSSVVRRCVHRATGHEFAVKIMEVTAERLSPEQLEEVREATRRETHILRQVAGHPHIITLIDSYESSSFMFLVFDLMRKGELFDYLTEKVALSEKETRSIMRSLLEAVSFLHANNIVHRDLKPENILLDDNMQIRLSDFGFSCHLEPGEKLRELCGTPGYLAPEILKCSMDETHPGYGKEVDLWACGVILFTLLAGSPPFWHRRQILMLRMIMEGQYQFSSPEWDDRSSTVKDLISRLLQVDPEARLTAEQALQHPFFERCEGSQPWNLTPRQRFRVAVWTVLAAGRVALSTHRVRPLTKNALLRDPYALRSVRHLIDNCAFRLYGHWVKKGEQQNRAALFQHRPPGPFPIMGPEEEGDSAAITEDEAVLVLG
# T13 sequence (P22612 whole entry): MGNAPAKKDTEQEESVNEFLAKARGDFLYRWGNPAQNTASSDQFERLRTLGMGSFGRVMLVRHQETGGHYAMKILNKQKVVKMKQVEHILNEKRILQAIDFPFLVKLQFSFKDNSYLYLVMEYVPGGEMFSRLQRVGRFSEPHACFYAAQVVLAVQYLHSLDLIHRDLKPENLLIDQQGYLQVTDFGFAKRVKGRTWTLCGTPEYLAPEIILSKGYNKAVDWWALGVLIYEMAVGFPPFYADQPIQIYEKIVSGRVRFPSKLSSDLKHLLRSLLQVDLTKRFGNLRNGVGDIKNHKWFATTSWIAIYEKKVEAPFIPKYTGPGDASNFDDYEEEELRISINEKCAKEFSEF
# T6 sequence (P50750 whole entry): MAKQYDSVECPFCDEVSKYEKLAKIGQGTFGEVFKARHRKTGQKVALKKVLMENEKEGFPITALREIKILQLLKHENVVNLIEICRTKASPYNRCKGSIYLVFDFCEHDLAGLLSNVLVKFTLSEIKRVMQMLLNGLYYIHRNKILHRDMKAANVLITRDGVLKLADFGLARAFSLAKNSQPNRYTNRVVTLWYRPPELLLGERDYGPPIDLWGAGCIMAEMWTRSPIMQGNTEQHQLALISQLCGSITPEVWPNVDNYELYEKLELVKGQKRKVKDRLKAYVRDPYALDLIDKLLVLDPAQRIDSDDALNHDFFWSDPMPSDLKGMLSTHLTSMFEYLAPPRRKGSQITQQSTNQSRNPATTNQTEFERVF
# T6 sequence (O60563 whole entry partner): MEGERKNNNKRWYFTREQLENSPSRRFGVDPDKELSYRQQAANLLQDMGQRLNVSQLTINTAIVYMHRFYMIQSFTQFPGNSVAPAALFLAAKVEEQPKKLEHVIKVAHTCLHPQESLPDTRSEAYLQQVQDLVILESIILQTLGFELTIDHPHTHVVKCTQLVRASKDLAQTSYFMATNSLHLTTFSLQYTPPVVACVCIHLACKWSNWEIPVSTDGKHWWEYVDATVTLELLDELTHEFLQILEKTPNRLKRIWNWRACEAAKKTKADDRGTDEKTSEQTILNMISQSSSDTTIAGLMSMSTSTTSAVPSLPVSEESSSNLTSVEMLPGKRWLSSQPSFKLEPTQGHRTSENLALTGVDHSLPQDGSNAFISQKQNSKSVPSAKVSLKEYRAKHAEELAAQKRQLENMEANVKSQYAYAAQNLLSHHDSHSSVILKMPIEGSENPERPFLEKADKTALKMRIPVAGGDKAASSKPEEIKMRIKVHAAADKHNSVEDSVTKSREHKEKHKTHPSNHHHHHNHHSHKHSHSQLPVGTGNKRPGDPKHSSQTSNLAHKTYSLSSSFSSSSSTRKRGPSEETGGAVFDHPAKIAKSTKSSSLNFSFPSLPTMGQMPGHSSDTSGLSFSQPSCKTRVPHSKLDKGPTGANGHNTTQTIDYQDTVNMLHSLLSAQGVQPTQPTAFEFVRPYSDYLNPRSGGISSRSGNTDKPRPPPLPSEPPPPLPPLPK
# T9 sequence (P68400 whole entry): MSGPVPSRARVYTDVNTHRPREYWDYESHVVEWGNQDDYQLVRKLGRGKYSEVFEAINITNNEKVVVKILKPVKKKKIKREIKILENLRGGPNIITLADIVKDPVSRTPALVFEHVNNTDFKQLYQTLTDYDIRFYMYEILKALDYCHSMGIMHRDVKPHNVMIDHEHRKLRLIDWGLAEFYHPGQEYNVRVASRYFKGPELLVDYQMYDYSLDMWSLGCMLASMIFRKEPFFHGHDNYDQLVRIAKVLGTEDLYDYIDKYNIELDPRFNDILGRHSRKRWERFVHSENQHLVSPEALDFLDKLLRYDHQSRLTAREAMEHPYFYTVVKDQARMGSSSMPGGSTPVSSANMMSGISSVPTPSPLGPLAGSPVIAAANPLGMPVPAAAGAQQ
# T15 sequence (P31749 whole entry): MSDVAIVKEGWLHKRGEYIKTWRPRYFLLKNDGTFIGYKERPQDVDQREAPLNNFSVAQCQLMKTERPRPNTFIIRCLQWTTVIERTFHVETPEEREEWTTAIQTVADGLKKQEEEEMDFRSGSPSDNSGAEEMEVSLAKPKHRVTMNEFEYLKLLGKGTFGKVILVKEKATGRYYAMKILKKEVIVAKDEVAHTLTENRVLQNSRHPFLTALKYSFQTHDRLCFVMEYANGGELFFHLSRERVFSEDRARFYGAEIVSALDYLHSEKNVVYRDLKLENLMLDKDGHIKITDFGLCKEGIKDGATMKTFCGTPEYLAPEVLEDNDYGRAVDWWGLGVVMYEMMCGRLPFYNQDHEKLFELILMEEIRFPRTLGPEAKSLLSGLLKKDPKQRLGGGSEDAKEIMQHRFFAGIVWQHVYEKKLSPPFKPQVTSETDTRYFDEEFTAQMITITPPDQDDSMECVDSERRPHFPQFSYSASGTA
# T16 sequence (P51817 whole entry): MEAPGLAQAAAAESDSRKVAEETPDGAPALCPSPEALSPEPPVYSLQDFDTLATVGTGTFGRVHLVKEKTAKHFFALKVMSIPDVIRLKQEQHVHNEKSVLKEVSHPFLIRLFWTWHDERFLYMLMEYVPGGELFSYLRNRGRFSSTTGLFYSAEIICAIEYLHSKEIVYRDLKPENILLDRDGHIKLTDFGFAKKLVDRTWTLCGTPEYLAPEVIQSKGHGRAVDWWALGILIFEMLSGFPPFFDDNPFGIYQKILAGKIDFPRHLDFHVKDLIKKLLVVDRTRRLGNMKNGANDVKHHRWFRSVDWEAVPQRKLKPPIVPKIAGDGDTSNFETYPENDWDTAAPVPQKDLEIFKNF
# T1 sequence (O15146 24-869): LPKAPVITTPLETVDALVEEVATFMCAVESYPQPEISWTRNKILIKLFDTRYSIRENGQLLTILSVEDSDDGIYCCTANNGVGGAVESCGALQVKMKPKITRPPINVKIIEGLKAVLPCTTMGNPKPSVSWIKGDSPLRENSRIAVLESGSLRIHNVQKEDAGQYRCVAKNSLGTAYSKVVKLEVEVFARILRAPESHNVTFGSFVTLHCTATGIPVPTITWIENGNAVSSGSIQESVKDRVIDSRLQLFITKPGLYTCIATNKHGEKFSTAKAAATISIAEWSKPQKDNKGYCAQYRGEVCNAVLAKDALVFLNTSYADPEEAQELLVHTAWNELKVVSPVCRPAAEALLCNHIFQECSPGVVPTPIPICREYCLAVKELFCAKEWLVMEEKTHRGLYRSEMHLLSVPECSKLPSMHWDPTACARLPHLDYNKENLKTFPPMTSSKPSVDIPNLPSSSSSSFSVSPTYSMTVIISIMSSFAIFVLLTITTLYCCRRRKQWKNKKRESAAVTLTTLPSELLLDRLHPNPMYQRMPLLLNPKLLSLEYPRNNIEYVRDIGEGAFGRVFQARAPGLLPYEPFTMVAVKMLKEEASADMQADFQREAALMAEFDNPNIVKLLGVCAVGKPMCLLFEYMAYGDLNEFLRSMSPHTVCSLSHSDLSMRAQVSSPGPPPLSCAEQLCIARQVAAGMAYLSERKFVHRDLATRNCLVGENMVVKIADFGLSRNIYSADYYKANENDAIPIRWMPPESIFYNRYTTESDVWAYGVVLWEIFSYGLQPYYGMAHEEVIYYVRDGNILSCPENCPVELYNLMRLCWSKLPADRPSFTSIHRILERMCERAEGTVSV
# T14 sequence (Q8N5S9 whole entry): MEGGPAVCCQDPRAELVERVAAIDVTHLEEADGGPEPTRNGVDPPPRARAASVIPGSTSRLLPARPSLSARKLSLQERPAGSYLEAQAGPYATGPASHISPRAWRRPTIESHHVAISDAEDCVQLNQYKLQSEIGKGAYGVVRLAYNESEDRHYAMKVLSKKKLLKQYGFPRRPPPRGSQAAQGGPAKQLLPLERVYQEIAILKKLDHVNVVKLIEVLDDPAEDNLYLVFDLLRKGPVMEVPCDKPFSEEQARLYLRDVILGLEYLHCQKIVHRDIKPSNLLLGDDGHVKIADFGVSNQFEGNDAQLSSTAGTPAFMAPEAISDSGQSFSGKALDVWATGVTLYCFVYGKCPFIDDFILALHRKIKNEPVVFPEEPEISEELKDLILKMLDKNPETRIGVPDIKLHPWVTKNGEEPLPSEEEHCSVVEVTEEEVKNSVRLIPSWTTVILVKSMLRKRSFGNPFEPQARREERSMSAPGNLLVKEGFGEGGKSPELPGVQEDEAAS
smiles,measurement,setting,value
NCC1CCN(c2nc(-c3ccncc3)nc3c(C#CCO)cccc23)CC1 [VT02956],remaining activity at 0.005 µM,[1],85%
same,remaining activity at 0.005 µM,[2],86%
same,% enzymatic activity relative to DMSO controls,[3],83%
same,remaining activity at 0.005 µM,[4],75%
same,% enzymatic activity relative to DMSO controls,[5],64%
same,remaining activity at 0.005 µM,[6],80%
same,growth of ER negative breast cancer MDA-MB-231 cells,[7],had little effect
same,remaining activity at 0.005 µM,[8],82%
same,remaining activity at 0.005 µM,[9],49%
same,remaining activity at 0.005 µM,[10],85%
same,remaining activity at 0.005 µM,[11],82%
same,remaining activity at 0.005 µM,[12],16%
same,remaining activity at 0.005 µM,[13],86%
same,remaining activity at 0.005 µM,[14],28%
same,remaining activity at 0.005 µM,[15],83%
same,% enzymatic activity relative to DMSO controls,[16],78%
same,YAP/TAZ dephosphorylation and ERα reduction (immunoblot),[17],dose-dependently induces YAP/TAZ dephosphorylation and ERα reduction
same,remaining activity at 0.005 µM,[18],3%
same,pIC50,"[19]; Mus musculus, 4T1 cells, n = 2, read-out: Cell viability inhibition IC50",< 5.00
same,growth of ER negative breast cancer cells 4T1 (cell viability),"[19]; increasing concentrations of VT02956, Supplementary Fig. 8g",does not inhibit the growth
same,growth of ER negative melanoma B16 cells,[20],had little effect
same,growth of ER+ breast tumour organoids (BTOs),[21],sensitive
same,remaining activity at 0.005 µM,[22],78%
